Test results as given in patent US9783536B2, “Nitrogen-containing heterocyclic compound or salt thereof” (FUJIFILM Corporation, priority 2013, dated 2017).
Structures can show the parent of a compound that is named as a salt. Where two headings read alike, the source gives them in different places.

Experiments:
[1] = molecular target: T1, GST fusion human ERK2 protein (Homo sapiens, UniProt P28482); assay: ERK2 enzyme assay (1); assay type: biochemical; details: read-out: ERK2 enzyme inhibitory activity (1)
T1 construct: purchased Carna Biosciences, Inc; host or cells: E. coli expression system
T1 sequence (P28482 whole entry, the tested form may be a part): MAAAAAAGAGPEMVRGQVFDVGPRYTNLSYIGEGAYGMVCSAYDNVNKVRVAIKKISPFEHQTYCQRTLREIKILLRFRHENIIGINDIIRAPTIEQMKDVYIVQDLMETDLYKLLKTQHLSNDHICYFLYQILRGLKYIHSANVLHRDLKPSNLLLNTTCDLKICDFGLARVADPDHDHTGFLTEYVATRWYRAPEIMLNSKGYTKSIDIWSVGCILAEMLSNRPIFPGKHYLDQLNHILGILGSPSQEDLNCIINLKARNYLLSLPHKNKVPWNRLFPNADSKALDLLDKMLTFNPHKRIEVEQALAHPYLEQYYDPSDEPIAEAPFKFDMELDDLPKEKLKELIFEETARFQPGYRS
Protocol: In an ERK2 enzyme assay, GLUTATHIONE S-TRANSFERASE (GST) FUSION HUMAN ERK2 PROTEIN (manufactured by Carna Biosciences, Inc.), which was produced by using an E. coli expression system, was used.
12 μL of a reaction liquid (2.5 nmol/L ERK2, 100 mmol/L Hepes, 10 mmol/L MgCl2, 1.5 mmol/L DTT, 0.003% Brij35, pH 7.5) including ERK2 protein and a test compound having a predetermined concentration was allowed to stand at room temperature for 15 minutes. Then, 3 μL of a mixture liquid of FL-PEPTIDE8 (5-FAM-IPTSPITTTYFFFKKK-COOH) (manufactured by Caliper Life Sciences), which is substrate peptide, and ATP (manufactured by Sigma-Aldrich Co. LLC.) was added thereto such that the final concentrations thereof became 4.25 μmol/L and 43.1 μmol/L, respectively, and an enzyme reaction was performed by allowing to stand at 25° C. for 120 minutes.
After the reaction, the enzyme reaction was stopped by adding 30 μL of a reaction stopper liquid (100 mmol/L HEPES, 11.2 mmol/L EDTA, 5.6% Brij35, pH 7.5) including a 0.5% COATING REAGENT 8 (trade name, manufactured by Perkin Elmer Inc.) thereto. Then, phosphorylated peptide and non-phosphorylated peptide were separated using LABCHIP EZ READER (trade name, manufactured by Caliper Life Sciences), and the porportion of the phosphorylated peptide was quantified.
The inhibitory activities of the compounds were evaluated using IC50 (50% inhibitory concentration). The IC50 was calculated using XLFIT (trade name, manufactured by ID Business Solutions).

human PI3Kα protein = molecular target: T2, human PI3Kα protein (Homo sapiens, UniProt P42336); assay: PI3Kα enzyme assay (ADP-Glo); assay type: biochemical; details: read-out: PI3Kα enzyme inhibitory activity
T2 construct: purchased Carna Biosciences, Inc; host or cells: baculovirus expression system
T2 sequence (P42336 whole entry): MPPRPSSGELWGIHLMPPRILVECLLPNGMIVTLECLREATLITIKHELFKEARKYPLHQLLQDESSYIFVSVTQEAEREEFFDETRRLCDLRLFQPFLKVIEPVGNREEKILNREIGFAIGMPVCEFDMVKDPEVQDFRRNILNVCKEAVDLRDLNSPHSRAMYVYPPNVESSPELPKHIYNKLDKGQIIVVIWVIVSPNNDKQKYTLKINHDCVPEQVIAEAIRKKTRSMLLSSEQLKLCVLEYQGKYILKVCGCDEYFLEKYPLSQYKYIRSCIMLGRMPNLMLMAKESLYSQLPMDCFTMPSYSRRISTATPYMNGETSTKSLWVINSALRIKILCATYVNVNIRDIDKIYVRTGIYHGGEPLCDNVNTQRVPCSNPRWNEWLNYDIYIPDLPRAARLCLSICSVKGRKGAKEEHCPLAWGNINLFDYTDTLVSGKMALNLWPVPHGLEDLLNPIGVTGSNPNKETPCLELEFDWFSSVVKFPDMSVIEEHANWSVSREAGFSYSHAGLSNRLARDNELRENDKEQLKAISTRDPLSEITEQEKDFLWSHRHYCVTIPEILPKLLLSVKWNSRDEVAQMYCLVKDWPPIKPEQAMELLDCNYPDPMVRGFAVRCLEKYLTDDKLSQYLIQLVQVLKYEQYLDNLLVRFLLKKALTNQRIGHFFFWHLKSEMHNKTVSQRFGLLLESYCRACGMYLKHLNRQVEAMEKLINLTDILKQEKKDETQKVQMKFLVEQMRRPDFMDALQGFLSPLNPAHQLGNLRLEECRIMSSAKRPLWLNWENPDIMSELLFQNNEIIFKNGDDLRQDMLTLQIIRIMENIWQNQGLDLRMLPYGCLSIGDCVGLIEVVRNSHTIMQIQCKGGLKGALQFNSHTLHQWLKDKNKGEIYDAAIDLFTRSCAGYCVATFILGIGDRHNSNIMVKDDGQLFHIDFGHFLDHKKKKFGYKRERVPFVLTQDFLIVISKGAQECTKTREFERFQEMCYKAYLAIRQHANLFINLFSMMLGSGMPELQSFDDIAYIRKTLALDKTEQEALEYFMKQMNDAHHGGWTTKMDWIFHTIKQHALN
T2 sequence (P27986 whole entry partner): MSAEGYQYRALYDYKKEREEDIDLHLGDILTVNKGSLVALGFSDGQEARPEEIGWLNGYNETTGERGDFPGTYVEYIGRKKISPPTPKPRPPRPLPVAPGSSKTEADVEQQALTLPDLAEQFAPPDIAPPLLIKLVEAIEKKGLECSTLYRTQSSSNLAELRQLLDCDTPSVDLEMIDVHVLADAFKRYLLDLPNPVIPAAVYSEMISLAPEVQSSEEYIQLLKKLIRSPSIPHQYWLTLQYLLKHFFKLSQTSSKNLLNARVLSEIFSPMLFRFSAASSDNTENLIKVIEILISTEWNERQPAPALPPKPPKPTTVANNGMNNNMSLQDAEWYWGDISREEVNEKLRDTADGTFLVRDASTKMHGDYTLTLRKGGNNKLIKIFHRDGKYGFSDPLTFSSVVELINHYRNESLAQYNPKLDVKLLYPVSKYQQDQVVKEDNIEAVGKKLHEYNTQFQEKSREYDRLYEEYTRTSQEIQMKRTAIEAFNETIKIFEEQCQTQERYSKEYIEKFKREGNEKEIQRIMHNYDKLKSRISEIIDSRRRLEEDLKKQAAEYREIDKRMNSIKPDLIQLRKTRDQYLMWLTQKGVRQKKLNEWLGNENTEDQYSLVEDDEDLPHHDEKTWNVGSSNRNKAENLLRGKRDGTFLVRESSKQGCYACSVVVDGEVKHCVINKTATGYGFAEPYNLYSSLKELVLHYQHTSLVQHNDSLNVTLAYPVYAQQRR
Outline: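 Biotinylated human PI3Kα (baculovirus-expressed, 4.5 nmol/L) pre-incubated 15 min with compound in Tris-HCl pH 7.5, MgCl2, BSA; reaction 60 min at 25° C with 50 μmol/L PIP2 and 100 μmol/L ATP final. ADP quantified by ADP-Glo luminescence; IC50 calculated.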

[2] = 2.5 nmol/L ERK2, ATP 43.1 μmol/L
[3] = 4.5 nmol/L PI3Kα, PIP2 50 μmol/L, ATP 100 μmol/L

Row | Structure (SMILES) | IC50 ([1]; ERK2 enzyme assay (1)) [nM] | IC50 (human PI3Kα protein) [nM] | IC50 [1, 2] [nM] | IC50 (human PI3Kα protein; [3]) [nM]
1 | COC1CCCN(CCCn2cc(-c3cnc4ccc(Nc5cc(C(C)C)cnn5)nc4c3)cn2)C1 (centres unmarked) [Example 0378, N-(5-isopropylpyridazin-3-yl)-7-(1-(3-(3-methoxypiperidin-1-yl)propyl)-1H-pyrazol-4-yl)-1,5-naphthyridine-2-amine] | < 1000 | < 1000 | – | –
2 | CN1CCN(c2cncc(Nc3cnc4ccc(Nc5nnc(C6CCCC6)s5)nc4c3)c2)CC1 [Example 0102] | – | – | < 1000 | < 1000
3 | CC(C)(C)c1nnc(Nc2ccc3ncc(-c4cnn(CCCN5CCCC5)c4)cc3n2)s1 [Example 0366] | < 1000 | < 1000 | – | –
4 | COc1ccccc1Nc1cnc2ccc(Nc3nnc(C4CCCC4)s3)nc2c1 [Example 0219, N^2-(5-cyclopentyl-1,3,4-thiadiazol-2-yl)-N^7-(2-methoxyphenyl)-1,5-naphthyridine-2,7-diamine] | 1000 to 10000 | 10000 to 50000 | – | –
5 | CC(=O)N1CCC(Nc2cnc3ccc(Nc4nnc(C5CCCC5)s4)nc3c2)C1 (centres unmarked) [Example 0065] | – | – | < 1000 | 1000 to 10000
6 | COc1ccccc1Nc1ccnc2ccc(Nc3nnc(C(C)C)s3)nc12 [Example 0011] | – | – | 1000 to 10000 | < 1000
7 | CN1CCN(c2cnc3ccc(Nc4nnc(C5CCCC5)s4)nc3c2)CCC1=O [Example 0064, 1-(6-((5-cyclopentyl-1,3,4-thiadiazol-2-yl)amino)-1,5-naphthyridin-3-yl)-4-methyl-1,4-diazepan-5-one hydrochloride] | – | – | < 1000 | 1000 to 10000
8 | CC(C)c1nnc(Nc2ccc3nccc(-c4ccncc4)c3n2)s1 [Example 0269, 5-isopropyl-N-(8-(pyridin-4-yl)-1,5-naphthyridin-2-yl)-1,3,4-thiadiazole-2-amine] | < 1000 | < 1000 | – | –
9 | Clc1cc(Nc2cnc3ccc(Nc4nnc(C5CCCC5)s4)nc3c2)cnc1-n1cccn1 [Example 0078] | – | – | < 1000 | < 1000
10 | c1cc(-c2ccnc3ccc(Nc4nncs4)nc23)ccn1 [Example 0275] | < 1000 | < 1000 | – | –
11 | c1cnc(Nc2cnc3ccc(Nc4nnc(C5CCCC5)s4)nc3c2)cn1 [Example 0209] | < 1000 | < 1000 | – | –
12 | CN(c1nnc(Nc2ccc3ncc(-c4cnn(C)c4)cc3n2)s1)S(=O)(=O)c1ccccc1 [Example 0190] | – | – | < 1000 | 1000 to 10000
13 | CC(C)c1nnc(Nc2ccc3nccc(-c4cn[nH]c4)c3n2)s1 [Example 0284] | 1000 to 10000 | < 1000 | – | –
14 | COc1cc(-c2ccnc3ccc(Nc4nnc(C(C)C)s4)nc23)ccn1 [Example 0280] | 1000 to 10000 | 10000 to 50000 | – | –
15 | CC(C)c1cnnc(Nc2ccc3ncc(-c4cccnc4)cc3n2)c1 [Example 0407] | < 1000 | 1000 to 10000 | – | –
16 | Cn1cc(-c2cnc3ccc(Nc4nccs4)nc3c2)cn1 [Example 0029] | – | – | < 1000 | < 1000
17 | CC(C)c1nnc(Nc2ccc3nccc(-c4cnccn4)c3n2)s1 [Example 0282] | 1000 to 10000 | 1000 to 10000 | – | –
18 | Cc1nnc(Nc2ccc3ncc(-c4cnn(CCCN5CCCC5)c4)cc3n2)s1 [Example 0323] | < 1000 | < 1000 | – | –
19 | COCc1csc(Nc2ccc3ncc(-c4cnn(C)c4)cc3n2)n1 [Example 0141] | – | – | 1000 to 10000 | 1000 to 10000
20 | CC(C)c1nnc(Nc2ccc3nccc(-c4cc[nH]c(=O)c4)c3n2)s1 [Example 0289, 4-(6-((5-isopropyl-1,3,4-thiadiazol-2-yl)amino)-1,5-naphthyridin-4-yl)pyridin-2(1H)-one] | 1000 to 10000 | < 1000 | – | –
21 | COc1cccc(Nc2ccnc3ccc(Nc4nnc(C(C)C)s4)nc23)c1 [Example 0012] | – | – | 1000 to 10000 | < 1000
22 | COc1ccccc1-c1ccnc2ccc(Nc3nnc(C(C)C)s3)nc12 [Example 0270] | < 1000 | < 1000 | – | –
23 | CC(C)c1cnnc(Nc2ccc3ncc(-c4cnn(Cc5cccnc5)c4)cc3n2)c1 [Example 0376] | < 1000 | < 1000 | – | –
24 | CC(=O)N1CC=C(c2cnc3ccc(Nc4nnc(C5CCCC5)s4)nc3c2)CC1 [Example 0334, 1-(4-(6-((5-cyclopentyl-1,3,4-thiadiazol-2-yl)amino)-1,5-naphthyridin-3-yl)-5,6-dihydropyridine-1(2H)-yl)ethanone] | < 1000 | < 1000 | – | –

Row | Structure (SMILES) | IC50 ([1]; ERK2 enzyme assay (1)) [nM] | IC50 (human PI3Kα protein) [nM] | IC50 [1, 2] [nM] | IC50 (human PI3Kα protein; [3]) [nM]
25 | Cc1cc(Nc2ccc3ncc(-c4cnn(C)c4)cc3n2)n[nH]1 [Example 0277, N-(5-methyl-1H-pyrazol-3-yl)-7-(1-methyl-1H-pyrazol-4-yl)-1,5-naphthyridine-2-amine] | 1000 to 10000 | 1000 to 10000 | – | –
26 | CN1CCCN(c2cnc3ccc(Nc4nnc(C5CCCC5)s4)nc3c2)CC1 [Example 0060] | – | – | < 1000 | 10000 to 50000
27 | c1cc(Nc2cnc3ccc(Nc4nnc(C5CCCC5)s4)nc3c2)no1 [Example 0315, N^2-(5-cyclopentyl-1,3,4-thiadiazol-2-yl)-N^7-(isoxazol-3-yl)-1,5-naphthyridine-2,7-diamine] | < 1000 | 1000 to 10000 | – | –
28 | c1cn(-c2cc(Nc3cnc4ccc(Nc5nnc(C6CCCC6)s5)nc4c3)ccn2)nn1 [Example 0080] | – | – | < 1000 | –
29 | CC(C)(C)OC(=O)N1CC=C(c2cnc3ccc(Nc4nnc(C5CCCC5)s4)nc3c2)CC1 [Example 0328, tert-butyl 4-(6-((5-cyclopentyl-1,3,4-thiadiazol-2-yl)amino)-1,5-naphthyridin-3-yl)-5,6-dihydropyridine-1(2H)-carboxylate] | < 1000 | – | – | –
30 | COc1cccc(-c2ccnc3ccc(Nc4nnc(C(C)C)s4)nc23)c1 [Example 0271] | < 1000 | – | – | –
31 | COc1cccc(-c2cnc3ccc(Nc4nnc(C5CCCC5)s4)nc3c2)c1 [Example 0212] | < 1000 | – | – | –
32 | COc1ccc(Nc2ccc3ncc(-c4cnn(C)c4)cc3n2)nn1 [Example 0149] | – | – | 1000 to 10000 | –
33 | c1cncc(Oc2cnc3ccc(Nc4nnc(C5CCCC5)s4)nc3c2)c1 [Example 0044, 5-cyclopentyl-N-(7-((pyridin-3-yl)oxy)-1,5-naphthyridin-2-yl)-1,3,4-thiadiazole-2-amine hydrochloride] | – | – | 1000 to 10000 | –
34 | COc1ccc(-c2cnc3ccc(Nc4nnc(C5CCCC5)s4)nc3c2)cc1OC [Example 0203] | < 1000 | – | – | –
35 | Cn1cc(-c2cnc3ccc(Nc4nnc(-c5ccccc5)s4)nc3c2)cn1 [Example 0028] | – | – | < 1000 | –
36 | Cn1cc(-c2cnc3ccc(Nc4nnc(C(F)(F)F)s4)nc3c2)cn1 [Example 0164] | – | – | < 1000 | –
37 | Brc1cnc2ccc(Nc3nnc(C4CCCC4)s3)nc2c1 [Example 0039, N-(7-bromo-1,5-naphthyridin-2-yl)-5-cyclopentyl-1,3,4-thiadiazole-2-amine] | – | – | < 1000 | –
38 | c1ccc(-c2cnc3ccc(Nc4nnc(C5CCCC5)s4)nc3c2)cc1 [Example 0218, 5-Cyclopentyl-N-(7-phenyl-1,5-naphthyridin-2-yl)-1,3,4-thiadiazole-2-amine] | < 1000 | – | – | –
39 | CCOC(=O)c1nnc(Nc2ccc3ncc(-c4cnn(C)c4)cc3n2)s1 [Example 0230] | < 1000 | – | – | –
40 | FC(F)(F)CN1CCN(c2cnc3ccc(Nc4nnc(C5CCCC5)s4)nc3c2)CC1 [Example 0049] | – | – | 1000 to 10000 | –
41 | C#Cc1cnc2ccc(Nc3nnc(C4CCCC4)s3)nc2c1 [Example 0042, 5-cyclopentyl-N-(7-ethynyl-1,5-naphthyridin-2-yl)-1,3,4-thiadiazole-2-amine hydrochloride] | – | – | 10000 to 50000 | –
42 | COc1ccc(-c2cnc3ccc(Nc4nnc(C5CCCC5)s4)nc3c2)cc1 [Example 0213] | < 1000 | – | – | –
43 | Cc1noc(C)c1-c1cnc2ccc(Nc3nnc(C4CCCC4)s3)nc2c1 [Example 0216] | < 1000 | – | – | –
44 | CSc1nnc(Nc2ccc3ncc(-c4cnn(C)c4)cc3n2)s1 [Example 0174, N-(7-(1-methyl-1H-pyrazol-4-yl)-1,5-naphthyridin-2-yl)-5-(methylthio)-1,3,4-thiadiazole-2-amine] | – | – | < 1000 | –
45 | COc1cc(-c2cnc3ccc(Nc4nnc(C5CCCC5)s4)nc3c2)cc(OC)c1OC [Example 0204] | < 1000 | – | – | –
46 | CC(C)(C)OC(=O)N1CCC(c2cnc3ccc(Nc4nnc(C5CCCC5)s4)nc3c2)CC1 [Example 0331, tert-butyl 4-(6-((5-cyclopentyl-1,3,4-thiadiazol-2-yl)amino)-1,5-naphthyridin-3-yl)piperidine-1-carboxylate] | 1000 to 10000 | – | – | –
47 | Cc1nnc(Nc2ccc3ncc(-c4cnn(C)c4)cc3n2)o1 [Example 0031, 5-methyl-N-(7-(1-methyl-1H-pyrazol-4-yl)-1,5-naphthyridin-2-yl)-1,3,4-oxadiazole-2-amine hydrochloride] | – | – | 1000 to 10000 | –
